Laboratory results as given in ChEMBL document CHEMBL1201862, “PubChem BioAssay data set” (2004).
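1) Cells in 96-well plates. 2) Compound, 48 h, 5 concentrations. 3) Linear interpolation between surrounding doses. 4) Unreached endpoint = highest concentration. Here, GI50 denotes the concentration required for 50% inhibition of growth.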 Calls of active or inactive are those of the source. No stated cut-off is given here; in the data, active = GI50 up to about 1.1 µM and inactive = higher.

How the values were obtained:
Assay in all cases: DTP human tumour cell line panel, 48 h
786-0 = tested on: 786-0
A498 = tested on: A498
A549 = tested on: A549
ACHN = tested on: ACHN
BT-549 = tested on: BT-549
CAKI-1 = tested on: CAKI-1
CCRF-CEM = tested on: CCRF-CEM
COLO 205 = tested on: COLO 205
DU-145 = tested on: DU-145
EKVX = tested on: EKVX
HCC 2998 = tested on: HCC 2998
HCT-116 = tested on: HCT-116
HCT-15 = tested on: HCT-15
HL-60 = tested on: HL-60
HOP-62 = tested on: HOP-62
HOP-92 = tested on: HOP-92
HT-29 = tested on: HT-29
Hs-578T = tested on: Hs-578T
IGROV-1 = tested on: IGROV-1
K562 = tested on: K562
KM12 = tested on: KM12
LOX IMVI = tested on: LOX IMVI
M14 = tested on: M14
MCF7 = tested on: MCF7
MDA-MB-231 = tested on: MDA-MB-231
MDA-MB-435 = tested on: MDA-MB-435
MDA-N = tested on: MDA-N
MOLT-4 = tested on: MOLT-4
Malme-3M = tested on: Malme-3M
NCI-H226 = tested on: NCI-H226
NCI-H23 = tested on: NCI-H23
NCI-H460 = tested on: NCI-H460
NCI-H522 = tested on: NCI-H522
NCI/ADR-RES = tested on: NCI/ADR-RES
OVCAR-3 = tested on: OVCAR-3
OVCAR-4 = tested on: OVCAR-4
OVCAR-5 = tested on: OVCAR-5
OVCAR-8 = tested on: OVCAR-8
PC-3 = tested on: PC-3
RPMI-8226 = tested on: RPMI-8226
RXF 393 = tested on: RXF 393
SF-268 = tested on: SF-268
SF-295 = tested on: SF-295
SF-539 = tested on: SF-539
SK-MEL-28 = tested on: SK-MEL-28
SK-MEL-2 = tested on: SK-MEL-2
SK-MEL-5 = tested on: SK-MEL-5
SK-OV-3 = tested on: SK-OV-3
SN12C = tested on: SN12C
SNB-19 = tested on: SNB-19
SNB-75 = tested on: SNB-75
SR = tested on: SR
SW-620 = tested on: SW-620
T47D = tested on: T47D
TK-10 = tested on: TK-10
U-251 = tested on: U-251
UACC-257 = tested on: UACC-257
UACC-62 = tested on: UACC-62
UO-31 = tested on: UO-31

Measured: GI50

COc1ccccc1C1C2=C(COC2=O)Oc2cc3c(cc21)OCO3 (configuration not stated)
inactive: 786-0 3.18 µM | A498 2.23 µM | A549 3.87 µM | ACHN 14 µM | BT-549 66.2 µM | CAKI-1 3.55 µM | CCRF-CEM 2.13 µM | COLO 205 1.78 µM | DU-145 3.39 µM | EKVX 2.29 µM | HCC 2998 3.23 µM | HCT-116 1.87 µM | HOP-62 3.93 µM | HOP-92 8.3 µM | HT-29 1.65 µM | Hs-578T 2.22 µM | IGROV-1 2.53 µM | KM12 1.33 µM | LOX IMVI 2.27 µM | M14 1.4 µM | MCF7 1.67 µM | MDA-MB-231 3.45 µM | MOLT-4 1.59 µM | Malme-3M 14.1 µM | NCI-H226 5.31 µM | NCI-H23 3.22 µM | NCI-H460 3.64 µM | NCI/ADR-RES 2.31 µM | OVCAR-3 2.55 µM | OVCAR-4 11.7 µM | OVCAR-5 11 µM | OVCAR-8 3.39 µM | PC-3 2.12 µM | RPMI-8226 3.27 µM | RXF 393 1.69 µM | SF-268 4.88 µM | SF-295 2.17 µM | SF-539 1.97 µM | SK-MEL-28 4.73 µM | SK-MEL-2 5.15 µM | SK-MEL-5 1.93 µM | SK-OV-3 3.46 µM | SN12C 3.82 µM | SNB-19 3.19 µM | SNB-75 3.51 µM | SW-620 1.38 µM | T47D 2.32 µM | TK-10 12.4 µM | U-251 3.66 µM | UACC-257 21.1 µM | UO-31 3.56 µM
active: HL-60 0.44 µM | K562 0.706 µM | MDA-MB-435 0.249 µM | MDA-N 0.245 µM | NCI-H522 0.619 µM | SR 0.792 µM | UACC-62 1.06 µM
1.16 µM: HCT-15

CCOC(=O)[C@H](O)[C@@H](O)C(=O)NCc1ccc(C(=O)c2ccccc2)cc1
> 100 µM: HCT-15
inactive: 786-0 > 100 µM | A498 > 100 µM | A549 > 100 µM | ACHN > 100 µM | BT-549 > 100 µM | CAKI-1 > 100 µM | CCRF-CEM > 100 µM | COLO 205 > 100 µM | DU-145 > 100 µM | EKVX > 100 µM | HCC 2998 > 100 µM | HCT-116 > 100 µM | HL-60 > 100 µM | HOP-62 > 100 µM | HOP-92 > 100 µM | HT-29 > 100 µM | Hs-578T > 100 µM | IGROV-1 > 100 µM | K562 > 100 µM | KM12 > 100 µM | LOX IMVI > 100 µM | M14 > 100 µM | MCF7 > 100 µM | MDA-MB-231 > 100 µM | MDA-MB-435 > 100 µM | MDA-N > 100 µM | MOLT-4 > 100 µM | Malme-3M > 100 µM | NCI-H226 > 100 µM | NCI-H23 > 100 µM | NCI-H460 > 100 µM | NCI-H522 > 100 µM | NCI/ADR-RES > 100 µM | OVCAR-3 > 100 µM | OVCAR-4 > 100 µM | OVCAR-5 > 100 µM | OVCAR-8 > 100 µM | PC-3 > 100 µM | RPMI-8226 > 100 µM | RXF 393 > 100 µM | SF-268 > 100 µM | SF-295 > 100 µM | SF-539 > 100 µM | SK-MEL-28 > 100 µM | SK-MEL-2 > 100 µM | SK-MEL-5 > 100 µM | SK-OV-3 > 100 µM | SN12C > 100 µM | SNB-19 > 100 µM | SNB-75 > 100 µM | SR > 100 µM | SW-620 > 100 µM | T47D > 100 µM | TK-10 > 100 µM | U-251 > 100 µM | UACC-257 > 100 µM | UACC-62 > 100 µM | UO-31 > 100 µM

CC(C)OP(=O)(OC(C)C)/C(C#N)=C/c1ccco1
inactive: 786-0 > 100 µM | A498 > 100 µM | A549 > 100 µM | ACHN > 100 µM | BT-549 > 100 µM | CAKI-1 > 100 µM | CCRF-CEM > 100 µM | COLO 205 > 100 µM | DU-145 > 100 µM | EKVX > 100 µM | HCC 2998 > 100 µM | HCT-116 > 100 µM | HL-60 > 100 µM | HOP-62 > 100 µM | HOP-92 > 100 µM | HT-29 > 100 µM | Hs-578T > 100 µM | IGROV-1 > 100 µM | K562 > 100 µM | KM12 > 100 µM | LOX IMVI > 100 µM | M14 > 100 µM | MCF7 > 100 µM | MDA-MB-231 > 100 µM | MDA-MB-435 > 100 µM | MDA-N > 100 µM | MOLT-4 > 100 µM | Malme-3M > 100 µM | NCI-H226 > 100 µM | NCI-H23 > 100 µM | NCI-H460 > 100 µM | NCI-H522 > 100 µM | NCI/ADR-RES > 100 µM | OVCAR-3 > 100 µM | OVCAR-4 > 100 µM | OVCAR-5 > 100 µM | OVCAR-8 > 100 µM | PC-3 > 100 µM | RPMI-8226 > 100 µM | RXF 393 > 100 µM | SF-268 > 100 µM | SF-295 > 100 µM | SF-539 > 100 µM | SK-MEL-28 > 100 µM | SK-MEL-2 > 100 µM | SK-MEL-5 > 100 µM | SK-OV-3 > 100 µM | SN12C > 100 µM | SNB-19 > 100 µM | SNB-75 > 100 µM | SR > 100 µM | SW-620 > 100 µM | T47D > 100 µM | TK-10 > 100 µM | U-251 > 100 µM | UACC-257 > 100 µM | UACC-62 > 100 µM | UO-31 5.19 µM
> 100 µM: HCT-15
